Reference: ChEMBL document CHEMBL1201862, “PubChem BioAssay data set” (2004)
The source made the active and inactive calls.

How the values were obtained:
[1] = molecular target: T1, E3 ubiquitin-protein ligase XIAP (Homo sapiens, UniProt P98170); assay: Counter Screen using XIAP-Bir3 for Chemical Antagonists of Bir1/2 domains of IAP-family anti-apoptotic proteins. [Related pubchem assays (depositor defined):AID1018, AID1449, AID1514, AID1638, AID1749, AID1750, AID488957, AID488963]
[2] = molecular target: T1, E3 ubiquitin-protein ligase XIAP; assay: XIAP antagonists, biochemical, IAP family, fluorescence polarization (AID 1018); assay type: functional
[3] = molecular target: T2, Polyadenylate-binding protein 1 (Homo sapiens, UniProt P11940); assay: PABP1 MLLE–PAM2 interaction inhibitors, dose response, miRNA deadenylation inhibitor project, biochemical, fluorescence polarization, Cy5-PAM2 peptide, secondary (AID 602260); assay type: functional; conditions: read-out: IC50_Mean
T2 sequence (P11940 whole entry): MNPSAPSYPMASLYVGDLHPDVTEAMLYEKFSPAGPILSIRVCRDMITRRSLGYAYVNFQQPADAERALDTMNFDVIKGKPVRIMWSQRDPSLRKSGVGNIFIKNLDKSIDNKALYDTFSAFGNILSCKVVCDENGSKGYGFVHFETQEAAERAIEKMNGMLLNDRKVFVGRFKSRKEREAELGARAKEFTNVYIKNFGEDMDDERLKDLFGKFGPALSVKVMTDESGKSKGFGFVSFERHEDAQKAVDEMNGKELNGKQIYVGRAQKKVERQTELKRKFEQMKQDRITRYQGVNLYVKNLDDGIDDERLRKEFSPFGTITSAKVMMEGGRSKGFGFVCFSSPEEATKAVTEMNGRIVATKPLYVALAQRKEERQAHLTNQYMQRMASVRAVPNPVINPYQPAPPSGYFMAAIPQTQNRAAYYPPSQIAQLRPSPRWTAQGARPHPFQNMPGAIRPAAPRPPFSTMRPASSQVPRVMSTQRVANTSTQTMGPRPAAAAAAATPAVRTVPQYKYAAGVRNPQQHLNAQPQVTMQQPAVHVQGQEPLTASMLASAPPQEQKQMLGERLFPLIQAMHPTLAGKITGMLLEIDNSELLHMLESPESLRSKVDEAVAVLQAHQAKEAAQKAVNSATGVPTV

[4] = molecular target: T2, Polyadenylate-binding protein 1; assay: PABP1 MLLE–PAM2 binding inhibitor potency, dose response, biochemical, fluorescence polarization, FITC-PAM2 peptide (AID 602259); assay type: functional; conditions: read-out: IC50_Mean
[5] = molecular target: Peroxisome proliferator-activated receptor gamma/Nuclear receptor coactivator 1 (Homo sapiens, UniProt P37231); assay: (§1) TR-FRET dose response biochemical High Throughput Screening assay for agonists of the steroid receptor coactivator 1 (SRC-1) recruitment by the peroxisome proliferator-activated receptor gamma (PPAR gamma): non-selective agonists. [Related pubchem assays (depositor defined):AID1300, AID1808, AID504735, AID631]; assay type: protein assay
Chain of Peroxisome proliferator-activated receptor gamma/Nuclear receptor coactivator 1 (P37231 whole entry): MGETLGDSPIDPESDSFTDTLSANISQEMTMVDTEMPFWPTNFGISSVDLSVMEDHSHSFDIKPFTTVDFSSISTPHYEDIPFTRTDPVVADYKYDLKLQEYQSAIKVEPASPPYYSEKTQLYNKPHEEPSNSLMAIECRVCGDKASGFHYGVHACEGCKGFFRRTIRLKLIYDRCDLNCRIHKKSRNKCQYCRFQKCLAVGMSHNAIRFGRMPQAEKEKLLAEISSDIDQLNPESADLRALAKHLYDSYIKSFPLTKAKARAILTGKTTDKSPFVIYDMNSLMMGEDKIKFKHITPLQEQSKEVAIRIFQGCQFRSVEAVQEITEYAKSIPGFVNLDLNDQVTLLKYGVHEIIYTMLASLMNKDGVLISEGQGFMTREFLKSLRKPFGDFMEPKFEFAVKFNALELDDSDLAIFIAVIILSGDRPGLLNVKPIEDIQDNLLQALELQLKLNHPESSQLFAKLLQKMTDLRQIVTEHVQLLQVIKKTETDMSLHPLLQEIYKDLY
Chain of Peroxisome proliferator-activated receptor gamma/Nuclear receptor coactivator 1 (Q15788 whole entry, further chain): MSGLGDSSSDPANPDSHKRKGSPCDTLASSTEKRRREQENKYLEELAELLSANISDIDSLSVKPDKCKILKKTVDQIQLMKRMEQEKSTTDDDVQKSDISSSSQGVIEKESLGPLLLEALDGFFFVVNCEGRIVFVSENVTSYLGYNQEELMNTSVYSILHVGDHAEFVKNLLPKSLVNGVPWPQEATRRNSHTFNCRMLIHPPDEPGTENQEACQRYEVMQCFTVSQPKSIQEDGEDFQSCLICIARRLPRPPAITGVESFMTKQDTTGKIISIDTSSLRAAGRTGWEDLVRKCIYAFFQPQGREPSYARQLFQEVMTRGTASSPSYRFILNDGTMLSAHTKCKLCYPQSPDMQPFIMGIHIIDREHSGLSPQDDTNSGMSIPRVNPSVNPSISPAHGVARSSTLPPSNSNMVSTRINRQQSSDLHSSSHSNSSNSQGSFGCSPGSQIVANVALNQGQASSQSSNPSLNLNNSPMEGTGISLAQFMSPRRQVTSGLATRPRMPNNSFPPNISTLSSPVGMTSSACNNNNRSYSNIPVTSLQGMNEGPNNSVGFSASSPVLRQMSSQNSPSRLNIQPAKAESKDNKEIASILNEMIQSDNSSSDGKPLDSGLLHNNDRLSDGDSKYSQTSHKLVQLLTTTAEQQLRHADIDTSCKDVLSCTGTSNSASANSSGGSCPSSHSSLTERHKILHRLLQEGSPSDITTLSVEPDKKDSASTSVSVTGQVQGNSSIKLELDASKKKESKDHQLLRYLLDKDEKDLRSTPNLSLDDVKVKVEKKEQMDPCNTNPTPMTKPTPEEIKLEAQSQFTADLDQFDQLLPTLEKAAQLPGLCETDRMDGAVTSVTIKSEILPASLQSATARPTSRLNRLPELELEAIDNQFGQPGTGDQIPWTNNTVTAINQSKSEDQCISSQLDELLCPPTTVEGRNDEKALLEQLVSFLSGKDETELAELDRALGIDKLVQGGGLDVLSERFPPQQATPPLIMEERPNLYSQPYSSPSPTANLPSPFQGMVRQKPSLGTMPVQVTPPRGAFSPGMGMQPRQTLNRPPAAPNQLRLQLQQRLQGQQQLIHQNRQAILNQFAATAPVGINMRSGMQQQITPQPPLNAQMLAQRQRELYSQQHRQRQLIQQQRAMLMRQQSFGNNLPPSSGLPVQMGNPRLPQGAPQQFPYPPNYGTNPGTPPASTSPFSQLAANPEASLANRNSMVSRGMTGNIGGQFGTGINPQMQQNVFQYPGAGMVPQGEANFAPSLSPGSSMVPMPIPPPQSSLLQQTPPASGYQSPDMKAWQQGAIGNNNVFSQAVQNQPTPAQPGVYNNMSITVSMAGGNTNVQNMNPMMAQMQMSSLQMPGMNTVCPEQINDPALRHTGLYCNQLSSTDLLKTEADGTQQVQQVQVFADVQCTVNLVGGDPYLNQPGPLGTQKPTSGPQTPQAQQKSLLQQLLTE

[6] = molecular target: Peroxisome proliferator-activated receptor gamma/Nuclear receptor coactivator 3 (Homo sapiens, UniProt P37231); assay: as §1, with “3 (SRC-3)” for “1 (SRC-1)”, “assays: 1301 (Confirmation screen.), 1048 (Primary screen.)]” for “assays (depositor defined):AID1300, AID1808, AID504735, AID631]”; assay type: functional
[7] = molecular target: Peroxisome proliferator-activated receptor gamma/Nuclear receptor coactivator 2 (Homo sapiens, UniProt P37231); assay: TR-FRET dose response biochemical High Throughput Screening assay for agonists of the steroid receptor coactivator 2 (SRC-2) recruitment by the peroxisome proliferator-activated receptor gamma (PPAR gamma): non-selective agonists. [Related pubchem assays: 1297, 1032 ]; assay type: functional
Chain of Peroxisome proliferator-activated receptor gamma/Nuclear receptor coactivator 2 (P37231 whole entry): as the sequence (P37231 whole entry) above
Chain of Peroxisome proliferator-activated receptor gamma/Nuclear receptor coactivator 2 (Q15596 whole entry, further chain): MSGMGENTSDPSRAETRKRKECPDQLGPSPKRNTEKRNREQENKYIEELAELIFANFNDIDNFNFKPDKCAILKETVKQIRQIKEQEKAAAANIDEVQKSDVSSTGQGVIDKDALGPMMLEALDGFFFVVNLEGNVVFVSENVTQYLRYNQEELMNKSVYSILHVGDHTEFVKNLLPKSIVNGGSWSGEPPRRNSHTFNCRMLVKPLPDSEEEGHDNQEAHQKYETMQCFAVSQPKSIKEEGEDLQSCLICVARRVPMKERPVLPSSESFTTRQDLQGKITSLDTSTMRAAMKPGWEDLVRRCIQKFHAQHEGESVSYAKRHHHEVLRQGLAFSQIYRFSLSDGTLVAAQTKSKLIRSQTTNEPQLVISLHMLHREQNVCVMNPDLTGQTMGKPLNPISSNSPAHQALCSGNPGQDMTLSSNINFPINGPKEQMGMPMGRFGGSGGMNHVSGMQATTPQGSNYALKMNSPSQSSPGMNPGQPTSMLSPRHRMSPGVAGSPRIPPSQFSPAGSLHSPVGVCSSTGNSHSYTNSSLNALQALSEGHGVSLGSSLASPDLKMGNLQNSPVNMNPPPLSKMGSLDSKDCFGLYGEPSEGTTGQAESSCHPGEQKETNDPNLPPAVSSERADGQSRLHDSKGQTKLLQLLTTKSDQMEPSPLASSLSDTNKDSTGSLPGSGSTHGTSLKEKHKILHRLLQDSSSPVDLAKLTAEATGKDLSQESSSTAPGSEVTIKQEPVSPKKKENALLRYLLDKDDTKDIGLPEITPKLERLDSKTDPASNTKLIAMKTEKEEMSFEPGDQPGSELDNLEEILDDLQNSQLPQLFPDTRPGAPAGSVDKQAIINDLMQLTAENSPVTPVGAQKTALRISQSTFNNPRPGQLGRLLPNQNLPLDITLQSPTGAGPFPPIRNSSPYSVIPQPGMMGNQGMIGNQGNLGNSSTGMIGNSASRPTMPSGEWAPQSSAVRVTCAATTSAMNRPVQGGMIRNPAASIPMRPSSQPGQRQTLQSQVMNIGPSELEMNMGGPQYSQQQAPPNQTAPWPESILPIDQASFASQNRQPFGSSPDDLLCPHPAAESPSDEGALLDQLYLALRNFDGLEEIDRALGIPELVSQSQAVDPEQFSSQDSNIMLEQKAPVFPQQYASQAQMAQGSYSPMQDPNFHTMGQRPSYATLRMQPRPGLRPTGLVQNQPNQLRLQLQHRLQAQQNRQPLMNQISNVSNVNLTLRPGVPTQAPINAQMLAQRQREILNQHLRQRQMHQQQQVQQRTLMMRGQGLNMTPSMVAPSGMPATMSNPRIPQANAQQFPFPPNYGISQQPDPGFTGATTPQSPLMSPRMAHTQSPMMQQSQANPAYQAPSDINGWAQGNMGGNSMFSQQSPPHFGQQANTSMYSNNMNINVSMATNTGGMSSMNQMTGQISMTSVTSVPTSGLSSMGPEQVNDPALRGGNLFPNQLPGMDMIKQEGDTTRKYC

[8] = molecular target: T3, Coagulation factor XII (Homo sapiens, UniProt P00748); assay type: functional;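 also: activated factor XIIa alpha cleaving a fluorogenic AMC peptide substrate; inhibitor potency from loss of enzyme activity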
T3 sequence (P00748 whole entry): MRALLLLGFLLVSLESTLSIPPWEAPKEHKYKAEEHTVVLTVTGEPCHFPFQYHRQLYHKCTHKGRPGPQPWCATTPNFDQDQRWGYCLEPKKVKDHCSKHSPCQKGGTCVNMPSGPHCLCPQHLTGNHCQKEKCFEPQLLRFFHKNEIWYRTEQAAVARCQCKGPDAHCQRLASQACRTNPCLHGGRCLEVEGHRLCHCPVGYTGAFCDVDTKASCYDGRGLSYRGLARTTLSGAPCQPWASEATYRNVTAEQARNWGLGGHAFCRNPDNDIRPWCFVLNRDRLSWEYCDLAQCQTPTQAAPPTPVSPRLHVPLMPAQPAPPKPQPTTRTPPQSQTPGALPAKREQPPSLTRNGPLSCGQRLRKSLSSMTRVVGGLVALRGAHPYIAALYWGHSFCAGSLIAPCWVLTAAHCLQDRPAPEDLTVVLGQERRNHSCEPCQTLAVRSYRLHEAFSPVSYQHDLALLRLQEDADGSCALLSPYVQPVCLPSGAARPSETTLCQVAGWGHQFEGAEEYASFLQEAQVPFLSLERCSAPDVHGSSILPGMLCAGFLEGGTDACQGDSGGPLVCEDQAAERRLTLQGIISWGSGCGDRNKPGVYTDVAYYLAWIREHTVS

[9] = molecular target: T4, Type-1 angiotensin II receptor (Homo sapiens, UniProt P30556); assay: AT1 receptor agonists, dose response, selectivity assay for APJ receptor agonist project, cell-based, uHTS hits (AID 488865); assay type: functional;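 also: beta-arrestin recruitment to AT1 measured by enzyme fragment complementation luminescence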
T4 sequence (P30556 whole entry): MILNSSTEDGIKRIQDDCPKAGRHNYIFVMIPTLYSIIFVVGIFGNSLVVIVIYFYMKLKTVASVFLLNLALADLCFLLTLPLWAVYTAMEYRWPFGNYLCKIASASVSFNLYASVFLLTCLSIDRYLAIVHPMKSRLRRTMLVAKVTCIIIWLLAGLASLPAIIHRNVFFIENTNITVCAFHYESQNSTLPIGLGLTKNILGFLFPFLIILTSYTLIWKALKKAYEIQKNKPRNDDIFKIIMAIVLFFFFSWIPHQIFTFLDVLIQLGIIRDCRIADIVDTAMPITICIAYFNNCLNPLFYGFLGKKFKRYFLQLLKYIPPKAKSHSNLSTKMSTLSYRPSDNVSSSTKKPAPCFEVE

[10] = molecular target: SWI/SNF-related matrix-associated actin-dependent regulator of chromatin subfamily A member 2 (Homo sapiens, UniProt P51531); assay: Luminescence-based cell-based high throughput dose response assay to identify activators of the function of SWI/SNF related, matrix associated, actin dependent regulator of chromatin, subfamily a, member 2 (SMARCA2, BRM).; assay type: functional
[11] = Counterscreen for activators of the function of SWI/SNF related, matrix associated, actin dependent regulator of chromatin, subfamily a, member 2 (SMARCA2, BRM): Luminescence-based cell-based high throughput dose response assay to identify non-selective compounds using the VP16 reporter assay.; assay type: functional
[12] = molecular target: SUMO-activating enzyme (Homo sapiens, UniProt Q9UBT2); assay: SUMOylation inhibitor hit validation, confirmation, SUMOylation inhibitor project, biochemical, AlphaScreen (AID 2018); assay type: functional
[13] = molecular target: T5, Corticotropin-releasing factor receptor 2/Corticotropin-releasing factor-binding protein (Homo sapiens, UniProt P24387+Q13324); assay: Dose Response confirmation of uHTS hits for small molecule antagonists of the CRF-binding protein and CRF-R2 receptor complex.; assay type: functional; conditions: read-out: IC50_Mean
T5 sequence (Q13324 whole entry): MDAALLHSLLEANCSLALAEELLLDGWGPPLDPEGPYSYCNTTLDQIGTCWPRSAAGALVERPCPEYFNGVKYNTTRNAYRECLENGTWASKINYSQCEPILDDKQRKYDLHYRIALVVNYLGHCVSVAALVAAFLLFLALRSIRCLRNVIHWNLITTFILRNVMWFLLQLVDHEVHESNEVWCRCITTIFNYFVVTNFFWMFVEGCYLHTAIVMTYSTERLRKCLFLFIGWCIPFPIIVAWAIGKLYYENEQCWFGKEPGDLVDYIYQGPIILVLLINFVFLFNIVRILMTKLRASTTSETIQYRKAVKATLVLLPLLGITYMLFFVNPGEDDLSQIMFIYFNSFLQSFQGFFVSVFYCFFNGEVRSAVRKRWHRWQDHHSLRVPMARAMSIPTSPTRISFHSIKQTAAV
T5 sequence (P24387 whole entry): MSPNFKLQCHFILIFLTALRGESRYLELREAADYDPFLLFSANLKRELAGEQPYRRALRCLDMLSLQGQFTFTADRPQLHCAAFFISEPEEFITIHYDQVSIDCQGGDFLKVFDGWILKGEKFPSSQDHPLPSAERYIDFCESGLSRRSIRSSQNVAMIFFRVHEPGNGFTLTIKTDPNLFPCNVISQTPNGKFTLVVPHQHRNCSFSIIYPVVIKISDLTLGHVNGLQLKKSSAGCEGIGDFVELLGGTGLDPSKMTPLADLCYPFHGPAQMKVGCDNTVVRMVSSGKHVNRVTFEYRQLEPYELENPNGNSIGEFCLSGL

[14] = molecular target: T5, Corticotropin-releasing factor receptor 2/Corticotropin-releasing factor-binding protein; assay: activators of CRF receptor 2 with binding protein – uHTS hits, confirmation (AID 602473); assay type: functional; conditions: read-out: EC50_Mean
[15] = molecular target: Peroxisome proliferator-activated receptor gamma/Nuclear receptor corepressor 2 (Homo sapiens, UniProt P37231+Q9Y618); assay: Counterscreen for NR2E3 inverse agonists: TR-FRET-based biochemical high throughput dose response assay to identify inverse agonists of the interaction between peroxisome proliferator-activated receptor gamma (PPARg) and nuclear receptor co-repressor 2 (NCOR2).; assay type: functional
[16] = molecular target: Photoreceptor-specific nuclear receptor (Homo sapiens, UniProt Q9Y5X4); assay: NR2E3 inverse agonists, dose response, biochemical, TR-FRET (AID 463256); assay type: functional
[17] = system: INS1; assay: beta cell apoptosis inhibitors, cytokine rescue, dose response, luminescence, retest (AID 449756); assay type: functional, cell-based; conditions: Rattus norvegicus;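 also: cell death triggered by IL-1 beta plus TNF-alpha plus IFN-gamma mixture; protective hits raise ATP signal compared with cytokine alone wells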
[18] = molecular target: T6, COUP transcription factor 2 (Homo sapiens, UniProt P24468); assay: Luminescence-based cell-based high throughput dose response assay to identify inhibitors of COUP-TFII (NR2F2).; assay type: functional;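 also: HEK293 cells transiently cotransfected with COUP-TFII expression vector and reporter; luciferase reporter luminescence driven by COUP-TFII from the pX2-168 reporter plasmid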
T6 sequence (P24468 whole entry): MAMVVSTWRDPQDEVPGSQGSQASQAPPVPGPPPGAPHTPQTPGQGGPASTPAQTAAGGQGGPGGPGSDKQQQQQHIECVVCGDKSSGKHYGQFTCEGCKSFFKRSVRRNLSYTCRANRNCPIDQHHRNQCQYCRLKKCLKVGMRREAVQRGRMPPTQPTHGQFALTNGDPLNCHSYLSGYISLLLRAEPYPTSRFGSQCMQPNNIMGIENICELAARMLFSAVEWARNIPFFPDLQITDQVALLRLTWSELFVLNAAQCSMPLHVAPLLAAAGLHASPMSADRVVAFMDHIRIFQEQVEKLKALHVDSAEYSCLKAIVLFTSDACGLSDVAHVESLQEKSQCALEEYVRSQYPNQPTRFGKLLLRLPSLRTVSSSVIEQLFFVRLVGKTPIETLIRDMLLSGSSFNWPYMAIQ

[19] = molecular target: Troponin, cardiac muscle (Homo sapiens, UniProt P19429+P45379+P63316); assay: Fluorescence-based biochemical high throughput dose response assay for activators of the calcium sensitivity of cardiac Regulated Thin Filaments (RTF). [Related pubchem assays (depositor defined):AID493008, AID493018, AID504382, AID504383]; assay type: protein-complex assay
[20] = molecular target: Glyceraldehyde-3-phosphate dehydrogenase (Homo sapiens, UniProt P04406)
[21] = molecular target: T7, Alkaline phosphatase, tissue-nonspecific isozyme (Homo sapiens, UniProt P05186); assay: human TNAP enzyme inhibitors, SAR follow-up, biochemical, luminescent, dose response (AID 1056)
T7 sequence (P05186 whole entry): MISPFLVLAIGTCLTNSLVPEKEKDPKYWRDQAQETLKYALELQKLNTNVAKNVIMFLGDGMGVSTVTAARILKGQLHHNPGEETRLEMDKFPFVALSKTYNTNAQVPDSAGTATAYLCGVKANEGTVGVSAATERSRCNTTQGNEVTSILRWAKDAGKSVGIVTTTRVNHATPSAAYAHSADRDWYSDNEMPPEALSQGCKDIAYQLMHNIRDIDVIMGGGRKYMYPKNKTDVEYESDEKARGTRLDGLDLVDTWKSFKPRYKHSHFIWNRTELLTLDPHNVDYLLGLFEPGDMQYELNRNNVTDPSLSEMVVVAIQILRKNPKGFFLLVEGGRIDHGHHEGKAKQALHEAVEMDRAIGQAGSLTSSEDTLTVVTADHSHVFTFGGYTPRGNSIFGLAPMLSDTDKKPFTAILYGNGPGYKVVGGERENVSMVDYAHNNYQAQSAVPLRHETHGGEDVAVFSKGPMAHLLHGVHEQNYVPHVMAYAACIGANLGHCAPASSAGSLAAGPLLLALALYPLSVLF

T1 sequence (P98170 whole entry): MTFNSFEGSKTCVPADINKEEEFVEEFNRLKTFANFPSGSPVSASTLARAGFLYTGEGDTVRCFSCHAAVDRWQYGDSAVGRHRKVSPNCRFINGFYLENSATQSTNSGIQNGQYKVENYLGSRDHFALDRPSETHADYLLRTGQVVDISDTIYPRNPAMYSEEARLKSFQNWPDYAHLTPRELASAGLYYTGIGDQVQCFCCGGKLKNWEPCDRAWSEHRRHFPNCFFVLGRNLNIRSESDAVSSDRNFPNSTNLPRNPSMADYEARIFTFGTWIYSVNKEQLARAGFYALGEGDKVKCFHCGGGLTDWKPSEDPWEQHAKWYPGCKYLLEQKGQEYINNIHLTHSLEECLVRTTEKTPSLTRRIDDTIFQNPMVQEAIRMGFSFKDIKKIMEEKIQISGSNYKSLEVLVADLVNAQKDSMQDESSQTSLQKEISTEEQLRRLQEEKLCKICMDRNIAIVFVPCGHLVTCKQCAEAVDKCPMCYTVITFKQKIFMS

With `Cc1cccc(N(CC(N)=O)C2SC(=O)N(c3ccccc3)C2=O)c1` (stereo not drawn) the IC50 [1] was > 100 µM (inactive), the IC50 [2] was > 100 µM (not active) and the IC50 [3] was > 66 µM (inactive). The IC50 [4] was > 66 µM (inactive).
For `Cc1ccc(-c2cc(C(=O)NCc3cn(C)nc3C)c3cc(Br)ccc3n2)cc1`, the EC50 [5] was 13.8 µM (inactive), the EC50 [6] was 40.7 µM (not active) and the EC50 [7] was 10.8 µM (not active).
In the case of `CC1CCN(S(=O)(=O)c2ccc3nc(-c4ccccn4)cc(C(=O)NCCN(C)Cc4ccccc4)c3c2)CC1`, the IC50 [8] is reported as > 50 µM (inactive), the EC50 [9] is reported as > 100 µM (inactive) and the EC50 [10] is reported as > 91.2 µM (inactive). For the same compound, the EC50 [11] was > 91.2 µM (inactive).
With `CN(C)c1ccc(NC(=O)c2sc(SCC(=O)Nc3ccc(Br)cc3)nc2N)cc1` the IC50 [12] was 41.5 µM (active).
For `CC1=C(C(=O)NCc2ccccn2)C2(CCC(C)CC2)OC1=O` (stereo not drawn), the IC50 [1] was > 100 µM (inactive), the IC50 [2] was > 100 µM (not active) and the IC50 [13] was > 47.1 µM (inactive). For the same compound, the EC50 [14] was > 53 µM (inactive).
In the case of `Cc1nc2ccc3nc(NC(=O)c4ccc5c(c4)OCCO5)sc3c2s1`, the EC50 [5] is reported as 4.06 µM (active), the EC50 [6] is reported as 10.3 µM (not active) and the IC50 [15] is reported as 1.23 µM (active). The IC50 [16] was 0.813 µM (active) and the EC50 [7] was 3.98 µM (active).
With `CC(C)(C)OC(=O)NCCCCCc1cn([C@@H](CO)C(=O)NCCCCCCCCCCC(=O)N2CCN(C(=O)OC(C)(C)C)CC2)nn1` the EC50 [9] was > 100 µM (inactive), the AC50 [17] was 5.45 µM (active) and the IC50 [18] was 3.28 µM (active).
In the case of `CCc1ccc(C(=O)NNC(=O)c2cccc(N3C(=O)CCC3=O)c2)cc1`, the EC50 [19] is reported as > 71.5 µM (inactive).
In the case of `COc1ccc(S(=O)(=O)Nc2ccc3ccccc3c2)c(OC)c1`, the IC50 [20] is reported as > 10 µM (inconclusive) and the IC50 [21] is reported as > 10 µM (inactive).
In the case of `O=C(Nc1ccc(C(=O)N2CCOCC2)cc1)Nc1cccc(Cl)c1`, the EC50 [19] is reported as > 71.5 µM (inactive).
